Patent publication US20220296623A1, “REDUCED NICOTINAMIDERIBOSIDES FOR TREATING OR PREVENTING KIDNEY DISEASE” (SOCIETE DES PRODUITS NESTLE S.A., priority 2019, published 2022)
Entries after “also recorded” stand apart in the source; their conditions may differ.

Assays:
[1] = Stability in FBS supplemented media; assay type: in vitro ADME
Text: (§1) NR degradation to NAM has been proposed as a limitation for its pharmacological efficacy. To evaluate whether NRH was also susceptible to degradation to NAM, we spiked NRH or NR in isolated mouse plasma. […] We also tested the stability of NRH in other matrixes.

[2] = tested on: equilibrative nucleoside transporters (ENTs); test: NRH action as NAD+ precursor under ENT blockage with NBTI; assay type: cell-based; conditions: in the presence of S-(4-nitrobenzyl)-6-thioinosine (NBTI)
Text: In order to understand the exact path by which NRH synthesizes NAD+, we initially evaluated whether NRH, could be transported into the cell by equilibrative nucleoside transporters (ENTs).

[3] = Circulating NAM, NRH and NR after intraperitoneal injection; assay type: in vivo, mice; conditions: mouse, in vivo, ip
Text: (§2) Levels of NRH and other NAD-related metabolites in biological samples were obtained by using a cold liquid-liquid extraction using a mixture of methanol:water:chloroform in 5:3:5 (v/v), from which the polar phase was recovered for hydrophilic interaction ultra-high performance liquid chromatography mass spectrometry (UHPLC-MS) analysis. The UHPLC consisted of a binary pump, a cooled autosampler, and a column oven (DIONEX Ultimate 3000 UHPLC+ Focused, Thermo Scientific), connected to a triple quadrupole spectrometer (TSQ Vantage, Thermo Scientific) equipped with a heated electrospray ionisation (H-ESI) source. Of each sample, 2 μL were injected into the analytical column (2.1 mm×150 mm, 5 μm pore size, 200 Å HILICON iHILIC®-Fusion(P)), guarded by a pre-column (2.1 mm×20 mm, 200 Å HILICON iHILIC®-Fusion(P) Guard Kit) operating at 35° C. The mobile phase (10 mM ammonium acetate at pH 9, A, and acetonitrile, B) was pumped at 0.25 mL/min flow rate over a linear gradient of decreasing organic solvent (0.5-16 min, 90-25% B), followed by re-equilibration for a total run time of 30 min. The MS operated in positive mode at 3500 V with multiple reaction monitoring (MRM). The software Xcalibur v4.1.31.9 (Thermo Scientific) was used for instrument control, data acquisition and processing. Retention time and mass detection was confirmed by authentic standards.
The above results prompted us to test whether NRH could act as an effective NAD+ precursor in vivo. For this, we first intraperitoneally (IP) injected mice with either NR or NRH (500 mg/kg).

[4] = Stability of NRH or NR spiked in isolated mouse plasma; assay type: in vitro ADME
Text: as §2, §1

NMNAT = test: NRH-induced NAD+ synthesis under NMNAT inhibition with gallotannin; assay type: cell-based
Text: As a follow-up step, NMNAT enzymes could catalyze the transition from NMNH to NADH.

AML12 hepatocytes = test: Intracellular NAD+ levels in AML12 hepatocytes after NRH or NR treatment (dose-response, time course); assay type: cell-based
Text: as §2
Even at such relatively low dose, NRH achieved similar increases in intracellular NAD+ levels to those reached with NR at 50-fold higher concentrations.
NRH actions were also extremely fast (FIG. 3), as significant increases in NAD+ levels were observed within 5 minutes after NRH treatment.

[5] = tested on: NRH-induced NAD+ Synthesis; test: Intracellular NAD-related metabolites after NRH or NR treatment; assay type: cell-based
Text: as §2, with “standards. […]” for “standards.”

adenosine kinase (AK) = molecular target: T1, adenosine kinase (AK) (Mus musculus, UniProt P55264); test: NRH-induced NAD+ synthesis under adenosine kinase inhibition (5-IT, ABT-702); assay type: cell-based
T1 construct: endogenous in cells; host or cells: AML12 cells
T1 sequence (P55264 whole entry): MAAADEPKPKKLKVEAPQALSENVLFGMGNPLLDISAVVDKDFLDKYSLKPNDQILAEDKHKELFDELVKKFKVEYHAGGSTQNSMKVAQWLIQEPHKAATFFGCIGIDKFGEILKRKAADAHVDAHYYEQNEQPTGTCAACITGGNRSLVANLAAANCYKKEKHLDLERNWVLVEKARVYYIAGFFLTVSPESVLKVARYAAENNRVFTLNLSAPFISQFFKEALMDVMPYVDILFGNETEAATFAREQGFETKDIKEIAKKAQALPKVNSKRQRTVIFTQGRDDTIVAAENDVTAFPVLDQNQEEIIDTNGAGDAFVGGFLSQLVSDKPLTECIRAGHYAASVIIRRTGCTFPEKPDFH
Protocol: AML12 cells were treated with an adenosine kinase inhibitor (5-IT; […]) for 1 hour prior to NRH treatment at the doses indicated. Then, 1 hour later, acidic extracts were obtained to measure NAD^+ levels. All values in the figure are expressed as mean +/−SEM of 3 independent experiments. * indicates statistical difference at p<0.05 vs. the respective vehicle treated group.
Considering the molecular structure of NRH, we reasoned that an alternative nucleoside kinase could be responsible for the phosphorylation of NRH. Confirming this expectation, the adenosine kinase (AK) inhibitor 5-iodotubercidin (5-IT) fully ablated the action of NRH. […] Metabolomic analyses further confirmed that upon inhibition of AK, the generation of NMNH, NADH and NAD+ was fully blunted, even if NRH was effectively entering the cell.

In the case of `NC(=O)C1=CN([C@@H]2O[C@H](CO)[C@@H](O)[C@H]2O)C=CC1` [NRH, dihydro-1-beta-D-ribofuranosyl-3-pyridinecarboxamide], the “degradation to NAM in FBS supplemented media” value [1] is reported as “did not degrade to NAM”, the “capacity as extracellular NAD+ precursor under ENT blockage” value [2] is reported as “largely lost its capacity as an extracellular NAD+ precursor; also recorded: a substantial action of NRH remained” and the “NR in circulation after NRH treatment” value [3] is reported as “detectable in circulation after NRH treatment at much higher levels than those detected after NR injection itself”. For the same compound, the NRH in circulation [3] was “detectable in circulation”, the “NAM levels in circulation” value ([3]; 500 mg/kg) was “only a very mild increase” and the “NR production on incubation in isolated plasma” value [4] was “did not lead to NR production”. For the same compound, the “NAD+ synthesis after NRH treatment in presence of gallotannin” value (NMNAT; NRH at maximal doses (0.5 mM)) was “largely compromised NAD+ synthesis; also recorded: part of the NRH action remained”, the “NRH action in presence of gallotannin” value (NMNAT; NRH at submaximal doses) was “totally blocked by gallotannin” and the “ability to increase intracellular NAD+ compared with NR” value (AML12 hepatocytes; AML12 hepatocytes) was “superior to that of NR”. For the same compound, the “time to significant increases in NAD+ levels after treatment” value (AML12 hepatocytes; AML12 hepatocytes) was at most 5 min, the “increase in intracellular NAD+ levels at maximal effect” value (AML12 hepatocytes; NRH around the millimolar range) was “more than 10 fold” and the “fold higher NR concentration needed for similar increases in intracellular NAD+ levels” value (AML12 hepatocytes; NRH at 10 μM vs NR) was 50 fold. The “concentration of maximal effects on NAD+ synthesis” value (AML12 hepatocytes; dose-response) was “around the millimolar range”, the “concentration at which NAD+ levels are significantly increased” value (AML12 hepatocytes; dose-response, AML12 hepatocytes) was 10 µM and the “intracellular detection of NRH and NMNH” value ([5]; 5 minutes after treatment) was “could be detected intracellularly”. For the same compound, the “intracellular NR and NMN” value ([5]; after treatment, compared with NR) was “increase in intracellular NR and NMN, greater than that triggered by NR itself”, the “formation of NR and NMN after NRH treatment with 5-IT” value (adenosine kinase (AK); 5-IT treatment) was “prevented the formation of NR and NMN” and the “action of NRH on NAD+ in presence of AK inhibitor 5-iodotubercidin (5-IT)” value (adenosine kinase (AK); AML12 cells, 5-IT 10 mM for 1 hour prior to NRH, NAD+ 1 hour later) was “fully ablated; also recorded: adenosine kinase dependent path”. The “generation of NMNH, NADH and NAD+ upon inhibition of AK” value (adenosine kinase (AK); metabolomic analyses) was “fully blunted” and the “NRH-mediated NAD+ synthesis in presence of AK inhibitor ABT-702” value (adenosine kinase (AK); second, structurally different AK inhibitor) was “role of AK in NRH-mediated NAD+ synthesis was confirmed”.
